Source: US8513271B2, “Pyrimidine compounds as delta opioid receptor modulators” (Janssen Pharmaceutica, NV, priority 2009, dated 2013)
Read-outs that look alike come from different tables or passages of the source. Each block holds one compound with its values, some of them ahead of it.

What was measured:
delta opioid receptor [1] = molecular target: T1, delta opioid receptor (Mus musculus, UniProt P32300); test: [35S]GTPγS binding assay in NG108-15 cell membranes (delta opioid functional assay), 200 nM screen; type: biochemical; conditions: NG108-15 cell membranes; for EC50 / GTPγS δ-RelEfficacy @200 nM: averages if tested more than once; for GTPγS δ-opioid receptor Rel Efficacy: relative efficacy from dose response; for GTPγS δ-RelEfficacy @200 nM: 200 nM test compound, relative to calculated max of SNC80 dose response curve
T1 construct: NG108-15 cell membranes were purchased from Applied Cell Sciences (Rockville, Md.); host or cells: NG108-15 cell membranes

delta opioid receptor [2] = molecular target: T2, delta opioid receptor (Rattus norvegicus, UniProt P33533); test: Rat brain delta opioid receptor binding assay; conditions: rat forebrain, [3H]naltrindole ligand; read-out: δ-binding (Naltrindole ligand) Ki
T2 construct: the forebrains were homogenized in Tris buffer in a Teflon®-glass homogenizer; from tissue; host or cells: forebrain of male Wistar rats, particulate (membrane) preparation

[3] = GTPγS δ-opioid receptor EC50 (μM)
[4] = read-out: GTPγS δ-opioid receptor EC50

T1 sequence (P32300 whole entry): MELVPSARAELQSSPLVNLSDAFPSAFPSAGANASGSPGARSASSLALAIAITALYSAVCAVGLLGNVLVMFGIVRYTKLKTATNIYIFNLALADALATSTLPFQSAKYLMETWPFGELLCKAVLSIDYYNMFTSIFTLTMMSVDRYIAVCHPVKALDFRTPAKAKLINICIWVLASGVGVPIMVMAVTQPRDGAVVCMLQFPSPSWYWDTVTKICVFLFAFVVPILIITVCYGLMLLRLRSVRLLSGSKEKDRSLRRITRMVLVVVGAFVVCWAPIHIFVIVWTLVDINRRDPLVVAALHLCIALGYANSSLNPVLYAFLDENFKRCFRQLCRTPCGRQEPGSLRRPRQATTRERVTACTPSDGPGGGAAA
T2 sequence (P33533 whole entry): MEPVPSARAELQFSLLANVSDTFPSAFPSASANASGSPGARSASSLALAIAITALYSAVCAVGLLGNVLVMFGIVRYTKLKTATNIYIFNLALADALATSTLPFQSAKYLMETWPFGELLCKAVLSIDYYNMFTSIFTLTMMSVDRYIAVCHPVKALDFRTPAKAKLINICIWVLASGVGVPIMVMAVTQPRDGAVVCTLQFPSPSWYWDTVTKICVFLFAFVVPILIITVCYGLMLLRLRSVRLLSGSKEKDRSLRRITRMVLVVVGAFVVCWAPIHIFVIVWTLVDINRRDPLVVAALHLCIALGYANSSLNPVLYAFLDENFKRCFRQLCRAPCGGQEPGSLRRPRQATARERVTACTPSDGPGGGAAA

SMILES: COc1ccc(Oc2nc(-c3cncc(OC)c3)ncc2N[C@@H]2CCCNC2)cc1 [Cpd 246]
EC50 (delta opioid receptor [1]; [3]): 0.078 µM
GTPγS δ-opioid receptor Rel Efficacy (delta opioid receptor [1]): 1.043

SMILES: COc1ccc(Oc2nc(-c3cncc(C#N)c3)ncc2NCc2[nH]cnc2C)cc1 [Cpd 285, 5-{4-(4-Methoxy-phenoxy)-5-[(5-methyl-3H-imidazol-4-ylmethyl)-amino]-pyrimidin-2-yl}-nicotinonitrile]
GTPγS δ-RelEfficacy @200 nM (delta opioid receptor [1]): 0.730
EC50 (delta opioid receptor [1]; [3]): 0.027 µM
GTPγS δ-opioid receptor Rel Efficacy (delta opioid receptor [1]): 0.782

SMILES: CCN(CC)C(=O)c1cccc(Oc2nc(-c3cncc(F)c3)ncc2NC[C@@H]2CCCN2)c1 [Cpd 170]
GTPγS δ-RelEfficacy @200 nM (delta opioid receptor [1]): 0.176

SMILES: CS(=O)(=O)c1ccc(Oc2nc(-c3cncc(F)c3)ncc2NC[C@@H]2CCCN2)cc1 [Cpd 222]
GTPγS δ-RelEfficacy @200 nM (delta opioid receptor [1]): 0.284

SMILES: Cc1ccc(Oc2nc(-c3cncc(Cl)c3)ncc2NC[C@@H]2CCCN2)c(F)c1F [Cpd 190]
GTPγS δ-RelEfficacy @200 nM (delta opioid receptor [1]): 0.222

SMILES: COc1ccc(Oc2nc(-c3cncc(C#N)c3)ncc2N2CC[C@@H](N)C2)cc1 [Cpd 326]
GTPγS δ-RelEfficacy @200 nM (delta opioid receptor [1]): 0.744
EC50 (delta opioid receptor [1]; [3]): 0.032 µM
GTPγS δ-opioid receptor Rel Efficacy (delta opioid receptor [1]): 1.104

SMILES: COc1ccc(Oc2nc(-c3cccnc3)ncc2N2CCN[C@@H](C)C2)cc1 [Cpd 356]
EC50 (delta opioid receptor [1]; [4]): 0.031 µM
GTPγS δ-opioid receptor Rel Efficacy (delta opioid receptor [1]): 1.030

SMILES: COCCOc1ccc(Oc2nc(-c3cccnc3)ncc2NC[C@@H]2CCCN2)cc1 [Cpd 244]
GTPγS δ-RelEfficacy @200 nM (delta opioid receptor [1]): 0.354

SMILES: COc1ccc(Oc2nc(-c3cncc(C)c3)ncc2NCc2cnc[nH]2)cc1 [Cpd 291]
GTPγS δ-RelEfficacy @200 nM (delta opioid receptor [1]): 0.303

SMILES: COCCOc1ccc(Oc2nc(-c3cncc(OC)c3)ncc2NC[C@@H]2CCCN2)cc1 [Cpd 243]
GTPγS δ-RelEfficacy @200 nM (delta opioid receptor [1]): 0.433

SMILES: COc1ccc(Oc2nc(-c3cncc(C)c3)ncc2N2CC[C@@H](N)C2)cc1 [Cpd 352]
EC50 (delta opioid receptor [1]; [3]): 0.079 µM
GTPγS δ-opioid receptor Rel Efficacy (delta opioid receptor [1]): 0.967

SMILES: COc1ccc(Oc2nc(-c3cc(C)cnc3Cl)ncc2NC[C@@H]2CCCN2)cc1 [Cpd 268]
EC50 (delta opioid receptor [1]; [3]): 0.081 µM
GTPγS δ-opioid receptor Rel Efficacy (delta opioid receptor [1]): 1.023

SMILES: COc1ccc(Oc2nc(-c3cncc(Cl)c3)ncc2NC[C@@H]2C[C@@H](F)CN2)cc1 [Cpd 194]
GTPγS δ-RelEfficacy @200 nM (delta opioid receptor [1]): 0.665
EC50 (delta opioid receptor [1]; [3]): 0.022 µM
GTPγS δ-opioid receptor Rel Efficacy (delta opioid receptor [1]): 1.034

SMILES: COc1ccc(Oc2nc(-c3cncc(C#N)c3)ncc2NC2CC(N)C2)cc1 (stereo not shown) [Cpd 303]
GTPγS δ-RelEfficacy @200 nM (delta opioid receptor [1]): 0.622
EC50 (delta opioid receptor [1]; [4]): 0.114 µM
GTPγS δ-opioid receptor Rel Efficacy (delta opioid receptor [1]): 1.047

SMILES: COc1ccc(Oc2nc(-c3cncc(SC)c3)ncc2N2CC[C@@H](N)C2)cc1 [Cpd 348]
EC50 (delta opioid receptor [1]; [4]): 0.101 µM
GTPγS δ-opioid receptor Rel Efficacy (delta opioid receptor [1]): 0.689

SMILES: COc1ccc(Oc2nc(-c3cccnc3)ncc2N2C[C@@H](C)N[C@@H](C)C2)cc1 [Cpd 359]
EC50 (delta opioid receptor [1]; [3]): 0.034 µM
GTPγS δ-opioid receptor Rel Efficacy (delta opioid receptor [1]): 0.709

SMILES: Cc1ccc(Oc2nc(-c3cncc(F)c3)ncc2NC[C@@H]2CCCN2)cc1 [Cpd 178]
GTPγS δ-RelEfficacy @200 nM (delta opioid receptor [1]): 0.578
EC50 (delta opioid receptor [1]; [4]): 0.3 µM
GTPγS δ-opioid receptor Rel Efficacy (delta opioid receptor [1]): 1.239

SMILES: COc1ccc(Oc2nc(-c3cncc(S(C)(=O)=O)c3)ncc2NC[C@@H]2CCCN2)cc1 [Cpd 108]
Ki (delta opioid receptor [2]): 107 nM

SMILES: COc1ccc(Oc2nc(-c3cncc(OC)c3)ncc2NC[C@@H]2C[C@@H](O)CN2)cc1 [Cpd 273, 5-(S)-{[4-(4-Methoxy-phenoxy)-2-(5-methoxy-pyridin-3-yl)-pyrimidin-5-ylamino]-methyl}-pyrrolidin-3-(R)-ol]
EC50 (delta opioid receptor [1]; [3]): 0.026 µM
GTPγS δ-opioid receptor Rel Efficacy (delta opioid receptor [1]): 1.001

SMILES: COc1ccc(Oc2nc(-c3cncc(C#N)c3)ncc2N2CCC[C@@H]2CN)cc1 [Cpd 334]
GTPγS δ-RelEfficacy @200 nM (delta opioid receptor [1]): 0.423

SMILES: COc1ccc(Oc2nc(-c3cncc(C#N)c3)ncc2N2CCNCC2)cc1 [Cpd 325]
GTPγS δ-RelEfficacy @200 nM (delta opioid receptor [1]): 0.866
EC50 (delta opioid receptor [1]; [3]): 0.011 µM
GTPγS δ-opioid receptor Rel Efficacy (delta opioid receptor [1]): 1.042

SMILES: N#Cc1cncc(-c2ncc(NC[C@@H]3CCCN3)c(Oc3ccc(C(F)(F)F)cc3)n2)c1 [Cpd 220]
GTPγS δ-RelEfficacy @200 nM (delta opioid receptor [1]): 0.457
EC50 (delta opioid receptor [1]; [4]): 0.454 µM
GTPγS δ-opioid receptor Rel Efficacy (delta opioid receptor [1]): 0.890

SMILES: COc1ccc(Oc2nc(-c3cncc(OC)c3)ncc2NC[C@H]2C[C@@H](O)CN2)cc1 [Cpd 274, 5-(R)-{[4-(4-Methoxy-phenoxy)-2-(5-methoxy-pyridin-3-yl)-pyrimidin-5-ylamino]-methyl}-pyrrolidin-3-(R)-ol]
EC50 (delta opioid receptor [1]; [3]): 0.286 µM
GTPγS δ-opioid receptor Rel Efficacy (delta opioid receptor [1]): 0.863

SMILES: COc1ccc(Oc2nc(-c3cncc(C)c3)ncc2N[C@@H]2CCCNC2)cc1 [Cpd 258]
EC50 (delta opioid receptor [1]; [3]): 0.075 µM
GTPγS δ-opioid receptor Rel Efficacy (delta opioid receptor [1]): 0.835

SMILES: Cc1ccc(Oc2nc(-c3cncc(F)c3)ncc2NC[C@@H]2CCCN2)c(F)c1F [Cpd 191]
GTPγS δ-RelEfficacy @200 nM (delta opioid receptor [1]): 0.410

EC50 (delta opioid receptor [1]; [4]): 0.12 µM
GTPγS δ-opioid receptor Rel Efficacy (delta opioid receptor [1]): 1.036
SMILES: COc1ccc(Oc2nc(-c3cnc(-c4cnc(Cl)c(C)c4)c(C)c3)ncc2NC[C@@H]2CCCN2)cc1 [Cpd 264]

SMILES: O=C(c1cccc(Oc2nc(-c3cncc(F)c3)ncc2NC[C@@H]2CCCN2)c1)N1CCOCC1 [Cpd 173]
GTPγS δ-RelEfficacy @200 nM (delta opioid receptor [1]): 0.249

SMILES: N#Cc1cncc(-c2ncc(NC[C@@H]3CCCN3)c(Oc3ccc(OCC(F)(F)F)cc3)n2)c1 [Cpd 122]
Ki (delta opioid receptor [2]): 122 nM

SMILES: CCc1ccc(Oc2nc(-c3cncc(C#N)c3)ncc2NC[C@@H]2CCCN2)cc1 [Cpd 179]
GTPγS δ-RelEfficacy @200 nM (delta opioid receptor [1]): 0.601
EC50 (delta opioid receptor [1]; [4]): 0.119 µM
GTPγS δ-opioid receptor Rel Efficacy (delta opioid receptor [1]): 1.182
